Series [1] is described as follows: Serum pyridoxamine and pyridoxal concentrations in schizophrenia patients during drug administration. Type of series: in vivo, human. Here is the method:
Measurement of the serum pyridoxamine concentration, the serum pyridoxal concentration, and the serum pyridoxine concentration was outsourced to SRL Inc. or Mitsubishi Chemical Medience Corporation (now LSI Medience Corporation).
Pyridoxamine dihydrochloride was orally administered as a pyridoxamine compound to schizophrenia patients daily, three times a day (morning, noon, and before bedtime) in an amount of 400 mg or 600 mg each time (daily dose of pyridoxamine: about 830 mg or 1250 mg) according to the protocols shown in FIG. 2 (described as “PM dose (mg/one time)” in FIG. 2).

The test system of series [2] is Wernicke's encephalopathy. Kind of series: Wernicke's encephalopathy findings (MRI of the brain, symptoms) during drug administration. It counts as in vivo, human. As for the experimental part: Immediately after the patient was suspected of having Wernicke's encephalopathy, oral administration of a thiamine compound (fursultiamine (Takeda Pharmaceutical Company Limited)) at a dose of 75 mg/day was initiated (administered once a day) and continued every day.
Immediately after the patient was suspected of having Wernicke's encephalopathy, intravenous administration of a thiamine compound (fursultiamine (Takeda Pharmaceutical Company Limited)) (300 mg/day) was performed, and then (from 10 weeks after the start of drug administration), oral administration of the thiamine compound at a dose of 100 to 50 mg/day was continued.

Series [3] can be described thus: Blood kinetics of pyridoxamine compound in people with reduced renal function. It counts as in vivo, human. The conditions noted are these: 150 mg pyridoxamine dihydrochloride oral. Here is the method:
As described in Experiment Example 1 above, administration of a pyridoxamine compound increases not only the blood pyridoxamine concentration, but also the blood pyridoxal concentration. Rather, in blood, the pyridoxal concentration was higher than the pyridoxamine concentration. Thus, changes in the serum concentrations of pyridoxamine, pyridoxal, pyridoxine, and 4-pyridoxic acid after administration of a pyridoxamine compound were observed over time.
More specifically, 150 mg of pyridoxamine dihydrochloride was orally administered to each of six people with reduced renal function (subjects) (average age: 56 years old, average body weight: 67 kg). Blood was collected 0.5, 1, 1.5, 2, 2.5, 3, 4, 5, 6, 8, 10, and 12 hours after the administration, and the serums were collected. Measurement of the serum concentrations of pyridoxamine, pyridoxal, pyridoxine, and 4-pyridoxic acid was outsourced to Shin Nippon Biomedical Laboratories, Ltd.

Series [4] has as its system vitamin B1 in human whole blood. Kind of series: In vitro effect on vitamin B1 concentration in human whole blood. As to conditions: human whole blood, 5, 50, 500 μg/mL, 37° C. The text has this: In addition, as described in Experiment Example 1 and Experiment Example 2, administration of a pyridoxamine compound increases not only the serum pyridoxamine concentration, but also the serum pyridoxal concentration, and thus, pyridoxamine and pyridoxal were both used as test substances for the investigation.
Blood was collected from a human using EDTA⋅2K as an anticoagulant. In addition, pyridoxamine dihydrochloride (Sigma-Aldrich Japan) was used as pyridoxamine, and pyridoxal hydrochloride (Nacalai Tesque, Inc.) was used as pyridoxal. They were dissolved at 0.5, 5, and 50 mg/mL in physiological saline to prepare test solutions. 10 μL of each test solution was individually added per mL of the whole blood collected above (test samples). The final concentrations of each test substance in the test samples were 5, 50, 500 μg/mL. Further, a vehicle was prepared by adding 10 μl of physiological saline to 1 ml of the whole blood. The vehicle and the test samples were incubated at 37° C. for 1 hour or 16 hours and then immediately frozen. Measurement of the vitamin B1 concentrations in the whole blood before the start of the incubation to which neither the physiological saline nor any test solution was added (baseline: indicated by “BL” in FIG. 4), and in the vehicle and in each test sample after the incubation, was outsourced to SRL Inc., and the measurement was performed using LC/MS/MS.

Series [5] relates to vitamin B1 deficiency. Description: Prevention of vitamin B1 deficiency by pyridoxamine compound in combination with thiamine compound. Type of series: in vivo, human. The conditions noted are these: seven schizophrenia patients; pyridoxamine dihydrochloride 1200 to 1800 mg per day oral for 24 weeks, with fursultiamine 75 mg/day oral from 2 to 21 weeks after start.

The values below come from patent publication US11564924B2, “Pharmaceutical composition formed by combining pyridoxamine compound and thiamine compound” (RENASCIENCE CO., LTD., priority 2014, dated 2023).

On to `Cc1ncc(CO)c(CN)c1O.Cl.Cl` [pyridoxamine dihydrochloride], for which the “serum pyridoxamine concentration, times higher than at the start of drug administration” value in series [1] (patient ID No. 3, 4 weeks after the start of drug administration) is recorded as “about 7700 times”; in series [1] (patient ID No. 6, 8 weeks after the start of drug administration) it was “about 2100 times”. Moreover, the “MRI of the brain finding during drug administration” value is “findings suggestive of Wernicke's encephalopathy” in series [2] (patient ID No. 3, 6 weeks after the start of drug administration, after an epilepsy-like symptom) and “findings suggestive of Wernicke's encephalopathy” in series [2] (patient ID No. 6, 9 weeks after the start of drug administration). Further, the “change in the concentration of pyridoxine (PN)” value in series [3] (serum up to 12 hours) is reported as “No large change”. The “time after administration at which the serum concentration of pyridoxamine (unchanged form) peaked” value in series [3] (six people with reduced renal function) is 2 h. The entries for the “change in whole blood vitamin B1 concentration” value in series [4] (1 hour incubation) and in series [4] (16 hours incubation) were “no changes” and “decrease was similar to that in the vehicle”, respectively. In series [5], the “findings suggestive of vitamin B1 deficiency” value is recorded as “no findings suggestive of vitamin B1 deficiency were observed in any of the seven schizophrenia patients”.
